Holding throughout (format): binding
Assay [1] deals with T1, CRBN_ΔHBD (Homo sapiens, UniProt Q96SW2, INS193GNGNSG/DEL194-248). The assay can be described thus: fluorescence polarization, displacement of Cy5-thalidomide. Particulars: […] Cy5-thalidomide tracer, pH […].
The target in a further assay is CRBN_TBD (Homo sapiens, UniProt Q96SW2). The assay is described as follows: fluorescence polarization, direct titration. Particulars: labelled compound; […] tracer, pH […], RT. (In general: Fluorescence polarisation rises when a labelled molecule tumbles more slowly, as on binding a larger partner.)
The target of assay [2] is T1, CRBN_ΔHBD. The assay can be described thus: fluorescence polarization, direct titration. The note with it: labelled compound; […] tracer, pH […], RT.
Another assay deals with CRBN:DDB1 complex (Homo sapiens, UniProt Q96SW2). The assay is described as follows: fluorescence polarization, direct titration. Particulars: labelled compound; […] tracer, pH […], RT.

In publication doi:10.1101/2024.01.18.576231v1 (biorxiv, 2024) one finds EC50 and Kd data, which are given here for eight molecules.

As to `COc1cccc2c1CN(C1CCC(=O)NC1=O)C2=O` (stereo not shown) [Z2508929002], the EC50 at CRBN_ΔHBD [1] worked out at 223 nM.
`Nc1c(O)ccc2c1C(=O)N(C1CCC(=O)NC1=O)C2=O` (stereo not shown) [Z3269026162]: the response at CRBN_ΔHBD [1] was half-maximal at 187 nM (EC50).
Still for that read-out and setting: to `O=C1CCC(N2Cc3c(C=C4CCOC4)cccc3C2=O)C(=O)N1` (stereo not shown) [Z4223332422] belongs 193 nM; to `NC(=O)N1CCC(C#Cc2cccc3c2CN(C2CCC(=O)NC2=O)C3=O)CC1` (stereo not shown) [Z4999915373], 218 nM; to `Cc1nn(CCO)cc1CNc1ccc2c(c1)CN(C1CCC(=O)NC1=O)C2=O` (stereo not shown) [Z5000207375], 257 nM.
As to `COc1nccnc1CNc1ccc2c(c1)CN(C1CCC(=O)NC1=O)C2=O` (stereo not shown) [Z5000208878], the response at CRBN_ΔHBD [1] was half-maximal at 197 nM (EC50).
For `COc1cc(N)cnc1-c1ccc2c(c1)CN(C1CCC(=O)NC1=O)C2=O` (stereo not shown) [Z5000467358], the EC50 at CRBN_ΔHBD [1] amounted to 151 nM.
Take Cy5-conjugated thalidomide: the Kd at CRBN_TBD was found to be 5000 nM; at CRBN_ΔHBD [2] it was 13 nM; on CRBN:DDB1 complex, 4.1 nM.

One may read the EC50 as the concentration at which the effect is half-maximal. Higher therefore signals lower potency in that assay. The term Kd denotes the concentration at which binding is half-saturated. Low values mean higher affinity, high ones lower affinity.
